Assay results taken from paper PMC5962072, “Structural insights on the efficient catalysis of hydroperoxide reduction by Ohr: Crystallographic and molecular dynamics approaches” (PLoS ONE, 2018).

Biological target: T1, XfOhr (Ohr from Xylella fastidiosa) (Xylella fastidiosa, UniProt Q9PCF4)
T1 construct: gene XF_1827
T1 sequence (Q9PCF4 1-143): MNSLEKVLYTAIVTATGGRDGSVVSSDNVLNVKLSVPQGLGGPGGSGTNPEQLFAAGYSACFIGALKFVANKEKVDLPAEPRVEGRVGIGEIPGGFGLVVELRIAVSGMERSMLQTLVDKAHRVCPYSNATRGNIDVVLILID

NC(=O)CCCC[C@@H](S)CCS [dihydrolipoamide]
lipoamide-lipoamide dehydrogenase peroxidase-coupled assay, NADH decay at 340 nm: XfOhr R19A and XfOhr E51A presented only residual dihydrolipoamide-dependent peroxidase activity
